Data set [1] concerns CWR22R. The data set can be described thus: Growth inhibition of human 22Rv1 cells after 5 days by SRB assay. In kind it is functional, cell-based. Particulars: 22Rv1, 120 h. In general terms: Sulforhodamine B stains cellular protein and so reports cell mass.
Data set [2] relates to PC-3. The data set can be described thus: Growth inhibition of human PC3 cells after 5 days by SRB assay. Format: functional, cell-based. Particulars: PC-3, 120 h.
The subject of data set [3] is DU-145. Kind of data set: Growth inhibition of human DU145 cells after 5 days by SRB assay. Particulars: DU-145, 120 h. In kind it is functional, cell-based.
Data set [4] addresses T1, Epidermal growth factor receptor (Homo sapiens, UniProt P00533). Kind of data set: Inhibition of EGFR in human PC3 cells assessed as reduction in EGF-stimulated EGFR phosphorylation preincubated for 2 hrs followed by EGF stimulation and measured after 30 mins by Western blot analysis. In kind it is cell-based. Particulars: PC-3. (Immunoblotting shows a protein as a band on a membrane.)

The target of data set [5] is T1, Epidermal growth factor receptor. Kind of data set: Inhibition of EGFR in human PC3 cells assessed as reduction in EGF-stimulated EGFR phosphorylation at <= 1 uM preincubated for 2 hrs followed by EGF stimulation and measured after 30 mins by Western blot analysis relative to control. Particulars: PC-3. In kind it is cell-based.
The target is the same in data set [6]. The data set can be described thus: Inhibition of EGFR in human 22Rv1 cells assessed as reduction in EGF-stimulated EGFR phosphorylation preincubated for 2 hrs followed by EGF stimulation and measured after 30 mins by Western blot analysis. Format: cell-based. Particulars: CWR22R.
Data set [7] has the same target. The data set can be described thus: Inhibition of EGFR in human 22Rv1 cells assessed as reduction in EGF-stimulated EGFR phosphorylation at <= 1 uM preincubated for 2 hrs followed by EGF stimulation and measured after 30 mins by Western blot analysis relative to control. Particulars: CWR22R. Format: cell-based.
Data set [8] has the same target. The data set can be described thus: Inhibition of recombinant human N-terminal GST-tagged EGFR (668 to end residues) expressed in baculovirus infected Sf9 insect cells assessed as reduction in […] EGFR phosphorylation […] by TMB peroxidase substrate based assay.
For data set [9] the target is unchanged. Kind of data set: Inhibition of EGFR in human PC3 cells assessed as reduction in EGF-stimulated ERK phosphorylation at 0.1 to 100 uM preincubated for 2 hrs followed by EGF stimulation and measured after 30 mins by Western blot analysis. Format: cell-based. Particulars: PC-3.
Data set [10] has the same target. Kind of data set: Inhibition of EGFR in human PC3 cells assessed as reduction in EGF-stimulated AKT phosphorylation at 0.1 to 100 uM preincubated for 2 hrs followed by EGF stimulation and measured after 30 mins by Western blot analysis. Format: cell-based. Particulars: PC-3.
Data set [11] in a line: Selectivity ratio of IC50 for EGFR (unknown origin) transfected in mouse NIH/3T3 cells to IC50 for EGFR in mouse NIH/3T3 cells. In kind it is cell-based.
Data set [12] deals with DNA. The data set can be described thus: Induction of DNA damage in human PC3 cells measured after 2 to 24 hrs by alkaline commet assay. In kind it is cell-based. Particulars: PC-3.
The test system of data set [13] is DNA. Kind of data set: Induction of DNA damage in human 22Rv1 cells measured after 2 to 24 hrs by alkaline commet assay. In kind it is cell-based. Particulars: CWR22R.
Data set [14] has as its system DNA. Kind of data set: Induction of DNA damage in human PC3 cells at 12.5 uM measured after 2 to 24 hrs by alkaline commet assay relative to busulfan. Format: cell-based. Particulars: PC-3.
Data set [15] concerns DNA. Kind of data set: Induction of DNA damage in human 22Rv1 cells at 12.5 measured after 2 to 24 hrs by alkaline commet assay relative to busulfan. In kind it is cell-based. Particulars: CWR22R.
For data set [16], the system named is DNA. Kind of data set: Induction of DNA damage in human PC3 cells assessed as increase in gammaH2AX phosphorylation up to 20 uM measured after 48 hrs by Western blot analysis. In kind it is cell-based. Particulars: PC-3.
Data set [17] has as its system DNA. Kind of data set: Induction of DNA damage in human 22Rv1 cells assessed as increase in gammaH2AX phosphorylation up to 20 uM measured after 48 hrs by Western blot analysis. Particulars: CWR22R. Format: cell-based.
In data set [18] the test system is PC-3. Kind of data set: Inhibition of PARP in human PC3 cells assessed as reduction in auto-PARylation up to 20 uM measured after 48 hrs by Western blot analysis. Format: cell-based.
For data set [19], the system named is CWR22R. Kind of data set: Inhibition of PARP in human 22Rv1 cells assessed as reduction in auto-PARylation up to 20 uM measured after 48 hrs by Western blot analysis. Format: cell-based.
The species named for data set [20] is Homo sapiens. The data set can be described thus: Selectivity ratio of IC50 for BRCA mutant (unknown origin) expressed in Cricetulus griseus VCA cells to IC50 for BRCA (unknown origin) expressed in Cricetulus griseus VCA cells. In kind it is cell-based.
Data set [21] is described as follows: Drug uptake in human 22Rv1 cells at 25 uM measured up to 6 hrs by LC-MS/MS analysis. In kind it is ADME, cell-based. Particulars: cwr22r.
A short description of data set [22]: Drug uptake in human 22Rv1 cells assessed as drug accumulation in perinuclear region at 10 uM measured after 2 hrs by confocal laser scanning microscopic analysis. Format: ADME, cell-based. Particulars: cwr22r.
Data set [23] is described as follows: Induction of 2'-Deoxyguanosine depurination at 0.1 mM measured after 24 hrs by LC-MS analysis. Particulars: 100 µM.
Data set [24] deals with PC-3. Kind of data set: Inhibition of PARP in human PC3 cells assessed as reduction in auto-PARylation at 10 uM measured after 48 hrs by Western blot analysis. Format: cell-based.
In data set [25] the test system is CWR22R. The data set can be described thus: Inhibition of PARP in human 22Rv1 cells assessed as reduction in auto-PARylation at 10 uM measured after 48 hrs by Western blot analysis. Format: cell-based.

Results on three molecules are retold here after ChEMBL document CHEMBL4602739, “Design and Synthesis of a Trifunctional Molecular System "Programmed" to Block Epidermal Growth Factor Receptor Tyrosine Kinase, Induce High Levels of DNA Damage, and Inhibit the DNA Repair Enzyme (Poly(ADP-ribose) Polymerase) in Prostate Cancer Cells” (J Med Chem, 2020).

Activity calls are given as the source filed them. The calls are words filed in the database; no cut-off is given here.

T1 sequence (P00533 whole entry): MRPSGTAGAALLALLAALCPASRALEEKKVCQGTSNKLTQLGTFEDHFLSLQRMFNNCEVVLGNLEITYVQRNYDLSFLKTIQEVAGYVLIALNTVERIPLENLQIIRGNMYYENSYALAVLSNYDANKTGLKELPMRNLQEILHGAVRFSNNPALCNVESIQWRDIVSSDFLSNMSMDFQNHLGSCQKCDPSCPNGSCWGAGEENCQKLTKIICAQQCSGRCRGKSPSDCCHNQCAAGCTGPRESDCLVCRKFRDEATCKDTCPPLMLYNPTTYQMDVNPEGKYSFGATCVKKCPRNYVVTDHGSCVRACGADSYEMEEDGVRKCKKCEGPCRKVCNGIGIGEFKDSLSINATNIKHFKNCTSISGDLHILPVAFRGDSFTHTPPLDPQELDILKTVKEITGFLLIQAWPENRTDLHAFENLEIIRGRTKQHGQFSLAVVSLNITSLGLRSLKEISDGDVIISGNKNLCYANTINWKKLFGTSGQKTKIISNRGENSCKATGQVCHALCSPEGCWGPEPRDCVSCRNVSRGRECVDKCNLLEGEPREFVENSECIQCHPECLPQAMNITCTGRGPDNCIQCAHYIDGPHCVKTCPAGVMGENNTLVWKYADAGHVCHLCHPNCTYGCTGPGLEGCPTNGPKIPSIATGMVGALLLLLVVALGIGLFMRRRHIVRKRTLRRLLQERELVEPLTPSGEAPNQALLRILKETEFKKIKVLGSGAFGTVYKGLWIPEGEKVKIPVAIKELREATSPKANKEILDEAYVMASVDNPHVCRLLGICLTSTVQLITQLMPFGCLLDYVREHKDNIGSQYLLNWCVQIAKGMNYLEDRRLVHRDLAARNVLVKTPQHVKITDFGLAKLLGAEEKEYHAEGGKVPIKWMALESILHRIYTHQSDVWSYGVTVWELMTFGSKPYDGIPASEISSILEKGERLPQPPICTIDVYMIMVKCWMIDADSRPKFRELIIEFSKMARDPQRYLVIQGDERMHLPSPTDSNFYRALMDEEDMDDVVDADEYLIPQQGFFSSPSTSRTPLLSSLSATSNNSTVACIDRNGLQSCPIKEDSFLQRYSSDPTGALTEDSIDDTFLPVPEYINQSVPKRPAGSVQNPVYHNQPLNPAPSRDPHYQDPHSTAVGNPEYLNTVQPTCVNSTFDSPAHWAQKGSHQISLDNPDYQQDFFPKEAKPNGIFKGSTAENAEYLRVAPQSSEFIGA

As a reminder, the IC50 is the concentration that inhibits the measured activity by half. Regarding `CS(=O)(=O)OCCCCOS(C)(=O)=O` [BUSULFAN], the values for the IC50 in data set [1], in data set [2] and in [3] were 24.3 µM, 36.2 µM and 25.8 µM, respectively.

By inhibition is commonly meant the change of the read-out against control, counted positive when it falls. As for `CN(CCOS(=O)(=O)CCc1cn(CCCC(=O)N2CCN(C(=O)c3cc(Cc4n[nH]c(=O)c5ccccc45)ccc3F)CC2)nn1)c1ccc2ncnc(Nc3cccc(Br)c3)c2c1`, the inhibition result in [4] was “Dose-dependent effect”; in [5], 34 to 45%; in data set [6], “Dose-dependent effect”; in data set [7] it was 34 to 45%. Besides, the IC50 in [8] came to 0.326 µM; in [1] it was 1.9 µM; in data set [2], 3 µM; in data set [3] it was 3.2 µM. For the same molecule, the inhibition entry in data set [9], in data set [10], in [18] and in data set [19] was “Active” each time. The Ratio IC50 is 7 in data set [11] and 3 to 4 in data set [20]. For the same molecule, the Activity entry in data set [12] and in data set [13] was “Dose-dependent effect” each time. In addition, the fold change (FC) in data set [14] and in data set [15] was 3 to 6 in each case. Also, the result in data set [16] and in data set [17] was Active. Further, the Drug uptake result in data set [21] and in [22] was “Active” in each case. In addition, the Drug metabolism entry in data set [23] is reported as “Metabolite_Detected”.

For the molecule `O=C(c1cc(Cc2n[nH]c(=O)c3ccccc23)ccc1F)N1CCN(C(=O)C2CC2)CC1` [OLAPARIB], the inhibition result in [24] and in data set [25] was “Active” throughout. For the same molecule, the figures for the IC50 in data set [1], in data set [2] and in data set [3] were 33.8 µM, 20.6 µM and 17.7 µM, respectively.
